{
  "source": "patent US6809077B2",
  "about": "“Cyclosporin analogs for the treatment of autoimmune diseases” (Enanta Pharmaceuticals, Inc., priority 2001, dated 2004)",
  "key": {"[1]": {"tested_on": "NFAT proteins (pNFAT-Luc luciferase) in Jurkat cells", "assay": "NFAT reporter gene assay, pNFAT-Luc plasmid in Jurkat cells", "type": "cell-based, human", "details": "Jurkat cells transfected with pNFAT-Luc, treated with 60 ng/ml of PMA and 1 μg/ml of inomycin in combination", "from_the_text": "(§1) NFAT activation follows precisely the activation of calcineurin by increased free calcium levels in the cytoplasm. Researchers from diverse fields are interested in the NFAT family of transcription factors, which are potential targets for newer and safer immunosuppressive drugs. In addition, the activation of NFAT proteins involves various cellular signal transduction pathways, including calcium mobilization and mitogen-activated protein kinase (MAP kinase) pathways linked to T-cell receptors and Ras1. To assist researchers probing the activity of NFAT proteins, Stratagene has developed a PathDetect cis-reporter plasmid, the pNFAT-Luc reporter plasmid (Stratagene, Inc. catalog #219094), containing the NFAT binding site from the human IL-2 gene.2,7-9. The NEAT cis-reporting system includes the transfection-ready pNFAT-Luc reporter plasmid and the pCIS-CK negative control plasmid.\n(§2) The backbone of the 5749-base-pair pNFAT-Luc plasmid is the pFR-Luc reporter plasmid of the aforementioned PathDetect trans-reporting system. […]\n(§3) Cyclosporin inhibits the activity of calcineurin, a protein phosphatase regulated by intracellular calcium mobilization. […] The inhibition of luciferase expression from pNFAT-Luc in the present model, in both Jurkat and CHO cells induced by PMA and ionomycin, was monitored for cyclosporin (as a positive control) and the cyclosporin analogs of the present invention."}, "[2]": {"tested_on": "NFAT proteins (pNFAT-Luc luciferase) in Chinese hamster ovary cells (CHO cells)", "assay": "NFAT reporter gene assay, pNFAT-Luc plasmid in CHO cells", "type": "cell-based", "details": "CHO cells transfected with pNFAT-Luc, treated with 60 ng/ml of PMA and 1 μg/ml of inomycin in combination", "from_the_text": "as §1, §2, §3"}, "[3]": {"tested_on": "NFAT proteins (pNFAT-Luc luciferase) in cells transfected with pNFAT-Luc", "assay": "NFAT reporter gene assay, cells transfected with pNFAT-Luc, single stimulus", "type": "cell-based", "details": "treated with either PMA or onomycin alone", "from_the_text": "as §1\nThe backbone of the 5749-base-pair pNFAT-Luc plasmid is the pFR-Luc reporter plasmid of the aforementioned PathDetect trans-reporting system. To this backbone, the GAL4 binding element was replaced with four direct repeats of the NFAT binding sequence (−286 to −257) from the IL-2 gene promoter, the most studied and widely used NFAT binding sequence. […]"}},
  "data": [
    {"compound": "CCCCCCCCCCCCCC(=O)O[C@@H]1[C@@H](C)[C@@]2(O)[C@@H](C=C(CO)C[C@]3(O)C(=O)C(C)=C[C@@H]23)[C@@H]2C(C)(C)[C@]12OC(C)=O", "note": "[PMA]", "values": [
      {"measurement": "luciferase activity increased", "setting": "[1]", "value": 13, "unit": "fold"},
      {"measurement": "luciferase activity increased", "setting": "[2]", "value": 16, "unit": "fold"},
      {"measurement": "increase in luciferase activity", "setting": "[3]", "value": "did not show a significant increase"}
    ]},
    {"compound": "C[C@H](CCC(=O)O)C[C@H](C)C[C@H](C)C(=O)/C=C(\\O)[C@H](C)C[C@H](C)C/C=C/[C@@H](C)[C@@H](O)[C@@H](C)[C@@H](O)C[C@@H]1CC[C@@](C)([C@H]2CC[C@@](C)([C@@H](C)O)O2)O1", "note": "[onomycin]", "values": [
      {"measurement": "increase in luciferase activity", "setting": "[3]", "value": "did not show a significant increase"}
    ]}
  ]
}
